The structures appear in SMILES notation.

In experiment [1] the target is T1, Flavobacterium johnsoniae tyrosine ammonia lyase (TAL), SEQ ID NO: 6 (Flavobacterium johnsoniae, UniProt A5FKY3).
T1 sequence (A5FKY3 1-506): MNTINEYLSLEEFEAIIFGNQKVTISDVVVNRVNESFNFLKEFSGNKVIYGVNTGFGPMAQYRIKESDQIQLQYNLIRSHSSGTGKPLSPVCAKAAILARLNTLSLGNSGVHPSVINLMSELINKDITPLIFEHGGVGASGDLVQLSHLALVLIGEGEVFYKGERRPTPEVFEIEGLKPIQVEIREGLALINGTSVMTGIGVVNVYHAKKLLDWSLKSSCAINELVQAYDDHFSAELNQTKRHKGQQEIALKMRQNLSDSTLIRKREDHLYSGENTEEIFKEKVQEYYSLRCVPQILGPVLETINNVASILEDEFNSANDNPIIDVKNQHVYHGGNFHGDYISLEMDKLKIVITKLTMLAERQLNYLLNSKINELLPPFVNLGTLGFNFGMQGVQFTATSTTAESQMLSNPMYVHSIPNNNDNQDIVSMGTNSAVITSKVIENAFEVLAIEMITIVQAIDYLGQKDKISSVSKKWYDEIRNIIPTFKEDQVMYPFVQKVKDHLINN
Kind of experiment: SFP characterization assay for kinetic parameters on tyrosine (Michaelis-Menten fit, absorbance at 290 nm). It counts as biochemical. The following applies: 0-2.48 mM tyrosine, 200 mM sodium phosphate, pH 7.0, A290. An excerpt: (§1) Polynucleotide sequences encoding phenylalanine and tyrosine ammonia lyases from Stanieria cyanosphaera (SEQ ID NO: 2), Chroogloeocystis siderophila (SEQ ID NO: 4), Flavobacterium johnsoniae (SEQ ID NO: 6), and Rhodotorula glutinis (SEQ ID NO: 8) were synthesized as the genes of SEQ ID NOS: 1, 3, 5, and 7, respectively. These synthetic genes were cloned into a pCK110900 vector system (See e.g., U.S. Pat. No. 7,629,157 and US Pat. Appln. Publn. Nos. 2016/0244787, and 2006/0195947, all of which are incorporated by reference), and subsequently expressed in an E. coli strain derived from W3110. In some embodiments, expression vectors lacking antimicrobial resistance markers find use.
(§2) E. coli cultures transformed with plasmids containing TAL variants were plated onto LBagar plates with 1% glucose and in some instances, 30 μg/mL chloramphenicol, and grown overnight at 37° C. A single colony from each culture was transferred to 5 mL of Luria Broth (LB) with 1% glucose and 30 μg/mL chloramphenicol, where appropriate. The cultures were grown for 18 h at 30° C., 250 rpm, and subcultured approximately 1:50 into 250 ml of TB with 30 μg/mL of chloramphenicol. The cultures were grown for approximately 3-4 h at 30° C., 250 rpm, to an OD600 of 0.6-0.8, and induced with 1 mM of IPTG. The cultures were grown for 20 h at 30° C., 250 rpm. Cells were harvested by centrifugation (7000 rpm×10 min, 4° C.), and the supernatants were discarded. The pellets were resuspended in 30 mL of 20 mM sodium phosphate, pH 8.0, with 150 mM NaCl in some instances, and lysed using a single pass through a microfluidizer (Microfluidics), at 110 psi. The lysates were pelleted (10,000× rpm, 30 min, 4° C.), and the supernatants were heated for 1-2 hours at 60-65° C. in a water bath before being pelleted again (10,000× rpm, 1 h, 4° C.). The resulting supernatants were then frozen and lyophilized to generate powders containing the expressed enzymes.
(§3) SFP Characterization Assay for Activity on Tyrosine and Phenylalanine
(§4) To evaluate if the mutations in the TAL variants had altered kinetics, the Michaelis constant (Km) and maximum velocity (Vmax) were determined for each variant. To assay, 20 μl of diluted TAL variants at 1 g/L and 180 μL of 2-fold serially diluted tyrosine (0-2.48 mM tyrosine in 200 mM sodium phosphate, pH 7.0), were added to the wells of a 96-well UV-STAR® plate (Greiner Bio-One). The reactions were mixed briefly, and the activity was determined by tracking the absorbance at 290 nm over time (every 14-37s over 5 min) using a SPECTRAMAX® Plus 384 or a SPECTRAMAX® 190 (Molecular Devices) absorbance microplate reader. The Vmax and Km for each tested TAL variant was determined by fitting the data to a Michaelis-Menten equation using non-linear regression.

Experiment [2] has as its target T2, Stanieria cyanosphaera tyrosine ammonia lyase (TAL), wild type, SEQ ID NO: 2 (Stanieria cyanosphaera, UniProt K9XQ92).
T2 sequence (K9XQ92 1-562): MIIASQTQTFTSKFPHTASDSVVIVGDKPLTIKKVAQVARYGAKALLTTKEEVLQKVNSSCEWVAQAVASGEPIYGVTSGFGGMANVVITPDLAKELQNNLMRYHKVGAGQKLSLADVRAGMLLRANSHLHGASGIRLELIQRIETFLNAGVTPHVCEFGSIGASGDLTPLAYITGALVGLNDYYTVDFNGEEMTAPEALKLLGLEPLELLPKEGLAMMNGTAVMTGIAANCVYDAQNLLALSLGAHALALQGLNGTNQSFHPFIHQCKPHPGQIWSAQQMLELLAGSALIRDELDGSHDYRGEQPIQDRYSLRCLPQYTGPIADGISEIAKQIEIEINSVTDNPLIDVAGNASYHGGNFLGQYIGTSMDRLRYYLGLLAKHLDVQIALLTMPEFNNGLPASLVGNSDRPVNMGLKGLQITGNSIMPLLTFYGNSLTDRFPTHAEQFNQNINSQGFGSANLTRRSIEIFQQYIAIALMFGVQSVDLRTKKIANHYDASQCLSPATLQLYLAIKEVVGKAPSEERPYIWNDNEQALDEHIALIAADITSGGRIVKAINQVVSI
The experiment is described as above. The class given is biochemical. The following applies: 0-2.48 mM tyrosine, 200 mM sodium phosphate, pH 7.0, A290.
Description: as §1, §2, §3, §4

In general, Km refers to the substrate concentration at which the rate is half of its maximum. As to `N[C@@H](Cc1ccc(O)cc1)C(=O)O` [Tyr, L-tyrosine], the Km is < 50 µM in experiment [1] (read-out: Tyr Km) and 50 to 150 µM in experiment [2] (read-out: Tyr Km). Further, the “Tyr Vmax” value in experiment [1] (diluted TAL at 1 g/L) was “+ (“+” = 0.5-1)”; in experiment [2] (diluted TAL at 1 g/L), “+++ (“+++” > 5)”.

Source of the values: patent US11473077B2, “Engineered tyrosine ammonia lyase” (Codexis, Inc., priority 2018, dated 2022).
